Measured values as given in US11219621B2, “Methods for treating immunodeficiency disease” (X4 Pharmaceuticals, Inc., priority 2015, dated 2022).

What was measured:
[1] = system: granulocyte-macrophage (CFU-GM), erythroid (BFU-E) and multipotential (CFU-GEMM) progenitor cells; assay: Progenitor/stem cell mobilization in mice after single subcutaneous injection; format: in vivo, C3H/HeJ mice; settings: 5 mg/kg s.c.
Protocol: All experiments were performed in […] mice. […] The progenitors were stimulated to form colonies in vitro with the combination of 1 U/mL rhu EPO, 50 ng/mL rmu SLF, 5% vol/vol pokeweed mitogen mouse spleen cell conditioned medium (PWMSCM), and 0.1 mM hemin. Plates were scored 7 days after incubation at 37° C., 5% CO2, lowered […] and in a humidified chamber.
In the first experiment (data shown in Table 6), mice received a dose of 5 mg/kg- and the number of progenitors in the circulating blood was measured at various time points (0.25, 0.5, 1, 2, 6 and 24 hours).

[2] = system: granulocyte-macrophage (CFU-GM), erythroid (BFU-E) and multipotential (CFU-GEMM) progenitor cells; assay: as above; format: in vivo, C3H/HeJ mice; settings: Table 8; progenitor cells per mL of blood; 5 mg/kg s.c.; @ - 60″ (1 h)
wild type CXCR4 = target: T1, wild type CXCR4 (Homo sapiens, UniProt P61073); settings: wild type CXCR4 in Cf2Th; read-out: EC50 for SDF-1α, calcium flux; cited from earlier work
T1 construct: expressed in transfected cells; host or cells: Cf2Th (canine thymus cell line lacking CXCR4)

R334X CXCR4 variant = target: T2, R334X CXCR4 variant (Homo sapiens, UniProt P61073); settings: R334X variant in Cf2Th; read-out: EC50 for SDF-1α, calcium flux; cited from earlier work
T2 construct: expressed in transfected cells; host or cells: Cf2Th (canine thymus cell line lacking CXCR4)

E343X CXCR4 variant = target: T3, E343X CXCR4 variant (Homo sapiens, UniProt P61073); settings: E343X variant in Cf2Th; read-out: EC50 for SDF-1α, calcium flux; cited from earlier work
T3 construct: expressed in transfected cells; host or cells: Cf2Th (canine thymus cell line lacking CXCR4)

[3] = Table 8, @ - 60″ (1 h), vs control
[4] = Table 8, progenitor cells per mL of blood, @ - 60″ (1 h)
[5] = comparison, AMD3100 at 1 hour, X4P-001 peak over 0.25-2 hours

T1 sequence (P61073 whole entry): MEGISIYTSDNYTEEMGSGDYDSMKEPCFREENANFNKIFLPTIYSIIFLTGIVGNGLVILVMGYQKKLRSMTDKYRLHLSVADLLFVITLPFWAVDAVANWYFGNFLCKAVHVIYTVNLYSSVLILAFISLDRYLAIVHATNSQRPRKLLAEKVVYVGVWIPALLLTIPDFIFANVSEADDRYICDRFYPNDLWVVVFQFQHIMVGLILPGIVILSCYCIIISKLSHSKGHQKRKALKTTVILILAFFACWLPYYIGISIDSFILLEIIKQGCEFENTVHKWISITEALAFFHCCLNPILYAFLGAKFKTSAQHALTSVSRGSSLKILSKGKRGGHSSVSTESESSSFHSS

c1cc(CN2CCCNCCNCCCNCC2)ccc1CN1CCCNCCNCCCNCC1 [AMD3100, plerixafor, reference compound]
BFU (BFU-E), Fold Chg [1, 3]: 3.12 fold
GEMM (CFU-GEMM), Fold Chg [1, 3]: 4.35 fold
GM (CFU-GM), Fold Chg [1, 3]: 9.11 fold
Nucleated Cellularity PBL-LD, Fold Chg [1, 3]: 1.62 fold
GEMM (CFU-GEMM), Mean [1, 4]: 138.5
GM (CFU-GM), Mean [1, 4]: 1950.3
Nucleated Cellularity PBL-LD, Mean ([1]; Table 8 comparison, @ - 60″ (1 h)): 1.008e+07 mL⁻¹
Maximum fold-increase in BFU-E [1, 5]: 3.12 fold
Maximum fold-increase in CFU-GEMM [1, 5]: 4.35 fold
Maximum fold-increase in CFU-GM [1, 5]: 9.11 fold
BFU (BFU-E), Mean [2]: 207.7

SDF-1α
EC50 (wild type CXCR4): 13.6 nM
EC50 (R334X CXCR4 variant): 11.3 nM
EC50 (E343X CXCR4 variant): 15.3 nM
